Experimental data reported in patent publication US7598393B2 (dated 2009).
Where a name gives a salt, the structure may show the parent alone.

melting point [°C] | Structure (SMILES)
142 | CCS(=O)(=O)c1ccc2c(c1)nc(CC(C)(C)C)n2CC1CCCO1 (stereo not drawn)
107 | CC(C)S(=O)(=O)c1ccc2c(c1)nc(CC1CC1)n2CC1CC1
122 | CC(C)S(=O)(=O)c1ccc2c(c1)nc(CC1(C)CCCC1)n2CC1CC1
172 | CCS(=O)(=O)c1ccc2c(c1)nc(CC(C)(C)C)n2CC1(O)CCCC1
173 | CC(C)(C)Cc1nc2cc(S(=O)(=O)c3ccccc3)ccc2n1CC1CC1
217 | CC(C)(C)Cc1nc2cc(S(C)(=O)=O)ccc2n1CC1CC1 (as salt: hydrochloride)
191 | CCS(=O)(=O)c1cnc2c(c1)nc(CC(C)(C)C)n2CC1CCOCC1
201 | CC(C)S(=O)(=O)c1cnc2c(c1)nc(CC(C)(C)C)n2CC1CCOCC1
119 | CC(C)S(=O)(=O)c1cnc2c(c1)nc(CC(C)(C)C)n2CCN(C)C
189 | CC(C)S(=O)(=O)c1ccc2c(c1)nc(CC(C)(C)C)n2CC1(O)CCOCC1
151 | CC(C)S(=O)(=O)c1ccc2c(c1)nc(CC(C)(C)C)n2CCN1CCOCC1
179 | CC(C)S(=O)(=O)c1cnc2c(c1)nc(CC(C)(C)C)n2CC1(O)CCOCC1
116 | CC(C)S(=O)(=O)c1ccc2c(c1)nc(CC(C)(C)C)n2CCN(C)C
137 | CC(C)S(=O)(=O)c1ccc2c(c1)nc(CC1CCCC1)n2CC1CC1
133 | CCS(=O)(=O)c1ccc2c(c1)nc(CC(C)(C)C)n2CCOC(F)(F)F
